# How the values were obtained:
# Experiment in all cases: relative viability (nuclei count vs DMSO), 5 days (fraction); higher = more cells survive
# [1] = compound: CC1CC(=O)N(C2=CN=C(N=C2N1C3CCCC3)NC4=C(C=C(C=C4)C(=O)NC5CCN(CC5)C)OC)C [NPK76-II-72-1] + COc1cc2c(Oc3ccc(NC(=O)C4(C(=O)Nc5ccc(F)cc5)CC4)cc3F)ccnc2cc1OCCCN1CCOCC1 [Foretinib] (partner 0.25 µM)
# Method in brief: (§1)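 The day after seeding in 1536-well plates, lung cancer cell lines were treated by pin tool with a single drug, or with a fixed anchor-drug dose together with five library-drug doses (not always all listed) in √10 steps. After 5 days, a combined fix-and-stain solution (final 0.05% Triton X-100, 1% formaldehyde, 1 ug/ml Hoechst) was added. Nuclei counted on 4× images gave relative viability as treated counts over vehicle counts, reported as the median of duplicate plates.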
# BI-2536 + Pemetrexed = compound: CC[C@@H]1C(=O)N(C)c2cnc(Nc3ccc(C(=O)NC4CCN(C)CC4)cc3OC)nc2N1C1CCCC1 [BI-2536] + Nc1nc2[nH]cc(CCc3ccc(C(=O)N[C@@H](CCC(=O)O)C(=O)O)cc3)c2c(=O)[nH]1 [Pemetrexed] (partner 0.2 µM)
# Method in brief: as §1
# BI-2536 + OSI-027 = compound: CC[C@@H]1C(=O)N(C)c2cnc(Nc3ccc(C(=O)NC4CCN(C)CC4)cc3OC)nc2N1C1CCCC1 [BI-2536] + COc1cccc2cc(-c3nc([C@H]4CC[C@H](C(=O)O)CC4)n4ncnc(N)c34)[nH]c12 [OSI-027] (partner 0.5 µM)
# Method in brief: as §1
# BI-2536 + Lapatinib = compound: CC[C@@H]1C(=O)N(C)c2cnc(Nc3ccc(C(=O)NC4CCN(C)CC4)cc3OC)nc2N1C1CCCC1 [BI-2536] + CS(=O)(=O)CCNCc1ccc(-c2ccc3ncnc(Nc4ccc(OCc5cccc(F)c5)c(Cl)c4)c3c2)o1 [Lapatinib] (partner 2 µM)
# Method in brief: as §1
Cell Line,relative viability ([1]; first compound 0.01 µM),relative viability ([1]; first compound 0.03162 µM),relative viability ([1]; first compound 0.1 µM),relative viability ([1]; first compound 0.3162 µM),relative viability ([1]; first compound 1 µM),relative viability (BI-2536 + Pemetrexed; first compound 0.01 µM),relative viability (BI-2536 + Pemetrexed; first compound 0.03162 µM),relative viability (BI-2536 + Pemetrexed; first compound 0.1 µM),relative viability (BI-2536 + Pemetrexed; first compound 0.3162 µM),relative viability (BI-2536 + Pemetrexed; first compound 1 µM),relative viability (BI-2536 + OSI-027; first compound 0.01 µM),relative viability (BI-2536 + OSI-027; first compound 0.03162 µM),relative viability (BI-2536 + OSI-027; first compound 0.1 µM),relative viability (BI-2536 + OSI-027; first compound 0.3162 µM),relative viability (BI-2536 + OSI-027; first compound 1 µM),relative viability (BI-2536 + Lapatinib; first compound 0.01 µM),relative viability (BI-2536 + Lapatinib; first compound 0.03162 µM),relative viability (BI-2536 + Lapatinib; first compound 0.1 µM),relative viability (BI-2536 + Lapatinib; first compound 0.3162 µM),relative viability (BI-2536 + Lapatinib; first compound 1 µM)
NCI-H1734,0.84,0.792,0.857,0.84,1.22,0.39,0.36,0.279,0.211,0.188,0.57,0.494,0.206,0.179,0.19,1.04,0.81,0.427,0.205,0.206
NCI-H1755,0.968,0.916,0.883,0.893,0.917,0.456,0.371,0.295,0.359,0.291,0.707,0.692,0.324,0.245,0.275,0.968,0.982,0.498,0.204,0.272
NCI-H1793,0.659,0.687,0.747,0.559,0.533,0.876,1.04,0.197,0.171,0.175,0.271,0.256,0.143,0.157,0.136,0.581,0.507,0.256,,0.193
NCI-H1915,1.09,1.13,1.1,1.06,1.09,0.507,0.427,0.347,0.147,0.0852,0.597,0.637,0.185,0.104,0.121,0.882,0.965,0.752,0.62,0.0794
